Results from patent US20230233500A1, “Gasdermin D (GSDMD) Succination for the Treatment of Inflammatory Disease” (University of Massachusetts, priority 2020, published 2023).
Entries after “also recorded” stand apart in the source; their conditions may differ. Where a name gives a salt, the structure may show the parent alone.

What was measured:
h.GSDMD = target: T1, h.GSDMD (Homo sapiens, UniProt P57764); experiment: In vitro succination reaction with LC-MS/MS peptide mapping; assay type: binding; settings: recombinant h.GSDMD
T1 sequence (P57764 1-484): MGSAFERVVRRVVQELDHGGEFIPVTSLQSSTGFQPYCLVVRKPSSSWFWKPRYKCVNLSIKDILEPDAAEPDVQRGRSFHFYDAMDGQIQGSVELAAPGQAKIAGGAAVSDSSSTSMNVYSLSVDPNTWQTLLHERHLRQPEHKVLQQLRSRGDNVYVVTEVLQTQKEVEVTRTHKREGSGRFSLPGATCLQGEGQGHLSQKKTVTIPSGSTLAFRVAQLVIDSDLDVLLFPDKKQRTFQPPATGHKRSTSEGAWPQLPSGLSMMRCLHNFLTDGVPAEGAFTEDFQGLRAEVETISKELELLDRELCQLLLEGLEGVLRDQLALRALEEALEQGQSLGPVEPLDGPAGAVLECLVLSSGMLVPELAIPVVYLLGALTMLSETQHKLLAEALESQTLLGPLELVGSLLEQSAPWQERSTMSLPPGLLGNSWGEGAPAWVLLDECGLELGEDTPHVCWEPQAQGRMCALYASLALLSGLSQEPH

GSDMD = target: T2, GSDMD (Mus musculus, UniProt Q9D8T2); experiment: MMF-Yne click chemistry labeling and streptavidin pulldown in BMDM lysates; assay type: binding
T2 construct: We also immunoprecipitated GSDMD from fumarate treated BMDMs; endogenous in cells; host or cells: primary mouse BMDMs
T2 sequence (Q9D8T2 1-487): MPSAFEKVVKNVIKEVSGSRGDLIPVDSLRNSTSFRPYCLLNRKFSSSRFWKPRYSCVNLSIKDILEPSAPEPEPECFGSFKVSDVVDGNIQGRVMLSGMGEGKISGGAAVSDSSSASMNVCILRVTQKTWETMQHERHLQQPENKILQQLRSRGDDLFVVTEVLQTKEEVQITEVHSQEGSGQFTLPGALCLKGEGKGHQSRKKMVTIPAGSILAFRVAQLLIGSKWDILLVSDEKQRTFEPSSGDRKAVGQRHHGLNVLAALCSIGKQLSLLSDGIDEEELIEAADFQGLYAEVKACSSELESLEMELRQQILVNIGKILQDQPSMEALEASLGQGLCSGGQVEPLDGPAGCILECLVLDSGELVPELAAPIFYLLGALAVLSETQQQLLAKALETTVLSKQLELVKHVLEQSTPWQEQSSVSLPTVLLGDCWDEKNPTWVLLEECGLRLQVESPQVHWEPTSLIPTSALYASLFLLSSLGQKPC
Procedure: FIG. 10. Illustrative schematic of click-chemistry based proteomics. Schematic representation of MMF-Yne proteomics. Primary WT BMDMs were treated with LPS for 2 hrs, MMF-Yne for 1 hour and nigericin (10 μM) for 1 hour. Lysates were subsequently Cu2+ clicked using a biotin-azide and streptavidin beads for pulldown of MMF-Yne interacting proteins. Streptavidin beads were digested using trypsin, reduced and alkylated and subjected to mass spec analysis.
Cells treated with or without the MMF-Alkyne probe were lysed and quantified by protein DC assay. Proteome samples (2 mg/ml) were incubated with TCEP, TBTA ligand, copper sulphate and Biotin Azide for 1 hour at room temperature with vortexing every 15 minutes. Precipitated proteins were centrifuged for 5 minutes at 4,600 g. Protein pellets were washed twice with ice cold methanol and sonicated in 1.2% SDS. Samples were heated at 95° C. for 5 minutes and diluted to a final volume of […] with PBS (0.2% SDS). An aliquot of the post-clicked lysate was retained and the remainder was incubated with streptavidin beads on a rotator overnight at 4 C. Samples were rotated at room temperature for 2 hours to resolubilize the SDS. Beads were washed five times with 0.2% SDS/PBS and placed on a rotator for 10 minutes in between washes. Beads were washed with ultra-pure water a further 3 times. […]

In the case of `COC(=O)/C=C/C(=O)OC` [Fumarate, Dimethyl fumarate], the “In vitro cysteine succination sites” value (h.GSDMD) is reported as “same cysteines”, the “In vitro cysteine succination sites” value (h.GSDMD; listed as DMF) is reported as “Cys309; also recorded: Cys467; also recorded: Cys56; also recorded: Cys191; also recorded: Cys268” and the “MMF-Yne labeling of GSDMD in presence of competitor” value (GSDMD; streptavidin pulldown from clicked lysates) is reported as “blocked”. For the same compound, the “MMF-Yne signal in pyroptotic lysates in presence of unlabeled competitor” value (GSDMD; streptavidin-IR dye immunoblot) was “reduced”.
